Conditions: for mass density: Fluid (supercritical or subcritical phases), Vibrating tube method

C=CCC [1-butene]
Conditions | Critical density [kg/m3] | mass density [kg/m3]
453.25 K, 9992 kPa | – | 366.88
458.24 K, 5019 kPa | – | 127.66
458.24 K, 14983 kPa | – | 409.67
458.24 K, 20004 kPa | – | 440.23
458.24 K, 29989 kPa | – | 478.1
458.24 K, 34985 kPa | – | 491.83
458.24 K, 39994 kPa | – | 503.63
458.25 K, 9993 kPa | – | 354.52
458.25 K, 25009 kPa | – | 461.51
463.24 K, 5016 kPa | – | 120.75
463.24 K, 14996 kPa | – | 401.9
463.24 K, 19997 kPa | – | 433.9
463.24 K, 25004 kPa | – | 456.08
463.24 K, 30003 kPa | – | 473.27
463.24 K, 34993 kPa | – | 487.39
463.25 K, 9983 kPa | – | 341.52
463.25 K, 39998 kPa | – | 499.47
468.24 K, 5016 kPa | – | 115
468.24 K, 9989 kPa | – | 328.56
468.24 K, 14982 kPa | – | 393.76
468.24 K, 19984 kPa | – | 427.48
468.24 K, 24997 kPa | – | 450.6
468.24 K, 30000 kPa | – | 468.38
468.24 K, 35011 kPa | – | 482.95
468.24 K, 39999 kPa | – | 495.31
473.24 K, 5018 kPa | – | 110.27
473.24 K, 9985 kPa | – | 315.25
473.24 K, 19988 kPa | – | 421.13
473.24 K, 24992 kPa | – | 445.14
473.24 K, 29997 kPa | – | 463.51
473.24 K, 35002 kPa | – | 478.49
473.24 K, 39996 kPa | – | 491.17
473.25 K, 14995 kPa | – | 385.74
478.24 K, 5019 kPa | – | 106.11
478.24 K, 9987 kPa | – | 302.04
478.24 K, 14989 kPa | – | 377.47
478.24 K, 19983 kPa | – | 414.69
478.24 K, 24987 kPa | – | 439.66
478.24 K, 30006 kPa | – | 458.68
478.24 K, 35011 kPa | – | 474.08
478.24 K, 39998 kPa | – | 487.02
483.24 K, 5019 kPa | – | 102.43
483.24 K, 9986 kPa | – | 289.02
483.24 K, 14996 kPa | – | 369.24
483.24 K, 19994 kPa | – | 408.37
483.24 K, 24993 kPa | – | 434.22
483.24 K, 30007 kPa | – | 453.8
483.24 K, 35009 kPa | – | 469.63
483.24 K, 39997 kPa | – | 482.92
488.24 K, 5019 kPa | – | 99.18
488.24 K, 9991 kPa | – | 276.55
488.24 K, 14995 kPa | – | 361.05
488.24 K, 20003 kPa | – | 402.02
488.24 K, 24984 kPa | – | 428.73
488.24 K, 29996 kPa | – | 448.96
488.24 K, 35002 kPa | – | 465.2
488.24 K, 39995 kPa | – | 478.82
493.24 K, 5019 kPa | – | 96.24
493.24 K, 9993 kPa | – | 264.66
493.24 K, 14985 kPa | – | 352.7
493.24 K, 19990 kPa | – | 395.6
493.24 K, 24997 kPa | – | 423.36
493.24 K, 30000 kPa | – | 444.14
493.24 K, 35000 kPa | – | 460.8
493.24 K, 39994 kPa | – | 474.74
498.24 K, 5019 kPa | – | 93.59
498.24 K, 9985 kPa | – | 253.12
498.24 K, 14988 kPa | – | 344.51
498.24 K, 19988 kPa | – | 389.08
498.24 K, 25004 kPa | – | 417.97
498.24 K, 30000 kPa | – | 439.33
498.24 K, 35005 kPa | – | 456.43
498.24 K, 39995 kPa | – | 470.68
503.24 K, 5016 kPa | – | 91.1
503.24 K, 9996 kPa | – | 242.88
503.24 K, 14997 kPa | – | 336.49
503.24 K, 19985 kPa | – | 382.45
503.24 K, 25003 kPa | – | 412.55
503.24 K, 29994 kPa | – | 434.51
503.24 K, 34998 kPa | – | 452.04
503.24 K, 39994 kPa | – | 466.64
508.24 K, 5019 kPa | – | 88.94
508.24 K, 9985 kPa | – | 232.83
508.24 K, 14995 kPa | – | 328.41
508.24 K, 20001 kPa | – | 376.3
508.24 K, 25001 kPa | – | 407.17
508.24 K, 29985 kPa | – | 429.72
508.24 K, 34995 kPa | – | 447.71
508.24 K, 39994 kPa | – | 462.63
513.23 K, 19985 kPa | – | 369.92
513.23 K, 35000 kPa | – | 443.43
513.24 K, 5019 kPa | – | 86.9
513.24 K, 9990 kPa | – | 224.06
513.24 K, 14981 kPa | – | 320.32
513.24 K, 24995 kPa | – | 401.8
513.24 K, 30001 kPa | – | 425.05
513.24 K, 39991 kPa | – | 458.64
518.23 K, 5019 kPa | – | 85.01
518.23 K, 14997 kPa | – | 312.76
518.23 K, 19988 kPa | – | 363.73
518.23 K, 25002 kPa | – | 396.53
518.23 K, 30001 kPa | – | 420.37
518.23 K, 35013 kPa | – | 439.18
518.24 K, 9981 kPa | – | 215.7
518.24 K, 39995 kPa | – | 454.74
523.23 K, 5018 kPa | – | 83.27
523.23 K, 9990 kPa | – | 208.53
523.23 K, 14996 kPa | – | 305.24
523.23 K, 19995 kPa | – | 357.64
523.23 K, 25003 kPa | – | 391.29
523.23 K, 30001 kPa | – | 415.71
523.23 K, 35000 kPa | – | 434.96
523.23 K, 40001 kPa | – | 450.86
Liquid, visual observation in a variable volume cell:FP | 237.88 | –

Liquid
Conditions | Critical pressure [kPa] | Critical temperature [K]
– | 4005.1 | 419.29

Reference: the NIST ThermoML archive (doi:10.1016/j.fluid.2004.09.013)
